From paper PMC2193167 (The Journal of Experimental Medicine, 2000)
No end group written: not given here.

Key:
HLA-A*0201 = HLA-A*0201 (Homo sapiens, UniProt P04439, D140Y/D185E/D98H/E176V/E277Q/G131W/G231S/I119V/I121R/I166T/I218V/L300P/L318F/N151K/N90K/P208A/P217A/Q86G/Q94H/R138H/R169H/T345S); experiment: Class I peptide binding affinity assay
[1] = test system: normal melanocytes in AAD^+tyrosinase^+ (or AAD^−) C57BL/6 mice; conditions: mouse, in vivo

Compound | IC50 (HLA-A*0201) | vitiligo, in words [1]
CSCC[C@H](NC(=O)[C@@H](NC(=O)CNC(=O)[C@H](CC(=O)O)NC(=O)[C@H](CCSC)NC(=O)[C@@H](N)Cc1ccc(O)cc1)[C@@H](C)O)C(=O)N[C@@H](CO)C(=O)N[C@@H](CCC(N)=O)C(=O)N[C@H](C(=O)O)C(C)C [YMDGTMSQV] | 0.074 µM | 
FMDGTMSQV [FMDGTMSQV] | 0.065 µM | 
IL-2: Proleukin (IL-2; Chiron), given alone without CTLs |  | vitiligo was not observed
